From patent US6638968B1, “Use of prodigiosin for treating diabetes mellitus” (Korea Research Institute of Bioscience and Biotechnology, priority 2000, dated 2003)

How the values were obtained:
Assay type in all cases: in vivo, mouse
[1] = tested on: NOD mice; experiment: Side effects of prodigiosin in NOD mice (body weight, mortality, pathological test of liver, kidney, lung)
Description: Because of diabetes, NOD mice have their weight decrease and come to die in 2 weeks after symptoms of diabetes.
FIG. 7 illustrates that the prodigiosin has no side effect.
In NOD mice receiving prodigiosin from 8 weeks to 24 weeks age, the negative effects of the prodigiosin were examined (FIG. 7). […] After their liver, kidney, and lung had been extracted from the prodigiosin-injected NOD mice, a pathological test was performed using the hematoxylinleosin staining.

[2] = tested on: NOD mice; experiment: Insulitis: lymphocyte infiltration into pancreatic ducts, hematoxylin/eosin staining; conditions: prodigiosin-injected NOD mice
Description: In insulin-dependent diabetes mellitus, insulitis may be induced by lymphocyte infiltration into pancreatic ducts and destruction of beta cells thereby. Macrophages and T cells are the major infiltrating lymphocytes, and these immune cells destroy beta cells. The pancreas from both the prodigiosin-injected and the non-injected NOD mice were preserved in formalin and to preparation. After the hematoxylin/eosin staining, the lymphocyte infiltration level was measured. 1, 2, and 3 point were respectively given to 25, 50, and 75% of insulitis progression, and the average value of insulitis progression was calculated (FIG. 4). The NOD mice, not receiving prodigiosin, had more than 2 point, or over 50% of infiltration, while the infiltration level of the prodigiosin-injected mice was about 1 point, or under 20% of infiltration.

[3] = tested on: NOD mice; experiment: Blood glucose of NOD mice (plasma, blood biochemical analyzer); conditions: prodigiosin-injected NOD mice, 10 mg/kg intraperitoneally
Description: FIG. 3 illustrates decrease of the blood glucose by administration of prodigiosin. After we isolated plasma from NOD mouse, the blood glucose was measured with the blood biochemical analyzer (Cibacorning, USA).
Prodigiosin was intraperitoneally injected in 10 mg/kg from 8 weeks to 24 weeks of age, and the urine glucose was measured with uropaper (Eiken Chemical Co. Ltd., Japan) every week. In control group of NOD mice, not receiving prodigiosin, the urine glucose was first detected from 15 weeks of age, and at 24 weeks, 80% of the mice had the urine glucose detected (FIG. 2). […] Average blood glucose of non-prodigiosin-injected NOD mice was 500 mg/dl, which means diabetes mellitus crisis, and that of prodigiosin-injected NOD mice was 100 mg/dl, which means the normal condition (FIG. 3).

For `CCCCCC1=C/C(=C/c2[nH]c(-c3ccc[nH]3)cc2OC)N=C1C` [prodigiosin], the mortality ([1]; NOD mice receiving prodigiosin) was “any mice were not found dead”, the “toxicity to kidney, liver and lung” value ([1]; NOD mice receiving prodigiosin) was “no toxicity to kidney, liver and lung” and the body weight ([1]; NOD mice receiving prodigiosin from 8 to 24 weeks of age) was “didn't decrease”. For the same compound, the “toxicity to kidney (glomerulus and nephric tubule, pathological test)” value ([1]; NOD mice receiving prodigiosin from 8 to 24 weeks of age, hematoxylin/eosin staining) was “no toxicity to kidney”, the lymphocyte infiltration ([2]; pancreas, hematoxylin/eosin staining) was “under 20%” and the “infiltration level (average insulitis progression score)” value ([2]; 1, 2, 3 point = 25, 50, 75% insulitis progression) was “about 1 point”. The average blood glucose [3] was 100 mg/dL.
